Structures are written as SMILES.

For the assay, the target named is human TRPA1 (Homo sapiens (Human), UniProt O75762). In words: Measurement of TRPA1 antagonist activity (2): as (1), different lot of human TRPA1 expression plasmid. The format is cell-based. The note with it: 293T cells transfected with human TRPA1, allylisothiocyanate 20 μM stimulation, calcium fluorescence, read-out: hTRPA1 IC50. On the procedure: Human embryonic kidney-derived 293T cells were cultured in Dulbecco's Modified Eagle Medium containing 10% fetal bovine serum, 10 unit penicillin, and 10 μg streptomycin, plated on a petri dish having a diameter of 10 cm at 3×10^6 cells, and cultured for 24 hr in a CO2 incubator. A reduced serum medium (manufactured by Invitrogen, trade name: OPTI-MEM, 600 μL), a gene transfer reagent (manufactured by Mirus Bio, trade name: Mirus TransIT-293, 18 μL), and human TRPA1 expression plasmid (6 μg) were mixed, the total amount of the mixture was added to the cells on the petri dish to allow for gene transfer. The cells were recovered about for 8 hr later, plated on a poly-D-lysine coated 384 well black/clear bottom plate at 12,000 cells/well, and cultured overnight.
human TRPA1, sequence (O75762 whole entry): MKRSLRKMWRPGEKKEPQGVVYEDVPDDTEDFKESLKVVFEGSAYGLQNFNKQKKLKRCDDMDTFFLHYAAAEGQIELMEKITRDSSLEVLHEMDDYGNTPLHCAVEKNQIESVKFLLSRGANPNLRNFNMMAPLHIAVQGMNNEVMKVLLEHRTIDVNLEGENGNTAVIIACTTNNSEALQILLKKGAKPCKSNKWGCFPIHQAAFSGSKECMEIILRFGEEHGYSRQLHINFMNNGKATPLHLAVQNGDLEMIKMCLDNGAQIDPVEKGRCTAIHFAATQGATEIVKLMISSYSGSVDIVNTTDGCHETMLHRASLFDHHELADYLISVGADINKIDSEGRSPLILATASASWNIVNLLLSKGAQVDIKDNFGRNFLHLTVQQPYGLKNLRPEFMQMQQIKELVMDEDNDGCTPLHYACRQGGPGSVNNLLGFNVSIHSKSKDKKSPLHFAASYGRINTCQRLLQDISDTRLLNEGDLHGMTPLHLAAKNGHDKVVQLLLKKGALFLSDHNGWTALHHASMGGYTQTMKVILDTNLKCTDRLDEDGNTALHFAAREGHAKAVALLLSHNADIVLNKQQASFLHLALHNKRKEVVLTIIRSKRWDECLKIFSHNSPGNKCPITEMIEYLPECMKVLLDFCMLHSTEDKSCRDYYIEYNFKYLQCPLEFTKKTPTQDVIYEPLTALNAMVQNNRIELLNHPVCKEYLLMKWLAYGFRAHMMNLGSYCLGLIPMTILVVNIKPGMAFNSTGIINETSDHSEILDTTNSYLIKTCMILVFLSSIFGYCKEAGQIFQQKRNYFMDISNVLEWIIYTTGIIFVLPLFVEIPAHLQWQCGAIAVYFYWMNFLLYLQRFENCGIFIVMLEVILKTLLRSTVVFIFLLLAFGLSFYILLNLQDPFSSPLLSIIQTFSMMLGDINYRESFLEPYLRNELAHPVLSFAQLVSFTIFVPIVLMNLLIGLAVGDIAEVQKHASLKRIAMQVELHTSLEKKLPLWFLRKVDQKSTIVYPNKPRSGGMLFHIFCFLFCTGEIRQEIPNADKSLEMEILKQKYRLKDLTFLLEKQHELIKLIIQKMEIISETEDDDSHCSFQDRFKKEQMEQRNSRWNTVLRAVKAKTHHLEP
Measurement of Intracellular Calcium Increase
The 384 well plate was recovered, and the medium was removed. A calcium-bonded fluorescent indicator (manufactured by Molecular Device, trade name: Calcium4 Assay Kit, 38 μL) dissolved in assay buffer (1×HBSS, 20 mM HEPES, pH 7.2) was added, and the cells were stained in a CO2 incubator for 1 hr. The cells were taken out at room temperature, stood for not less than 15 min, a test substance (10 μL) was added by a platereader FDSS7000 (Hamamatsu Photonics K.K.) equipped with a 384ch dispenser. After 10 min, allylisothiocyanate (12 μL) was further added at a final concentration of 20 μM, and changes in the relative fluorescence intensity after addition of allylisothiocyanate were measured for 5 min.
Test Substance Preparation
The test substance was dissolved in dimethyl sulfoxide and serially diluted with an assay buffer containing 0.1% bovine serum albumin (1×HBSS, 20 mM HEPES, pH 7.2) to a 4.8-fold concentration of the evaluation concentration. Allylisothiocyanate, which is a known TRPA1 activator, was dissolved in dimethyl sulfoxide to 100 mM, and further diluted 5-fold (100 μM) of the final concentration, like the test substance.
Calculation of Antagonist Activity
Under the test substance-free conditions, the maximum variation range of the fluorescence intensity before and after allylisothiocyanate stimulation was defined to be 100% activity rate, and the variation range before and after buffer stimulation was defined as 0% activity rate. The activity rate on addition of the test substance was determined, and the numerical value obtained by subtracting the activity rate from 100 was defined to be an inhibitory rate. IC50, which is the concentration of the test substance necessary for reaching the 50% inhibitory rate, was calculated from the sigmoid approximate curve by a spreadsheet software Excel-Fit.
Measurement of TRPA1 Antagonist Activity (2)
By a method similar to that in Experimental Example 1-1 except that the lot of human […] expression plasmid is different, the TRPA1 antagonist activity of the test substance was measured.
In the case of `O=C(NCc1cc(-c2ccc(C(F)(F)F)cc2)nc(N2CCCC2)n1)[C@@H]1CCCN1S(=O)(=O)c1cc2ccccc2o1` [Example 329, (2S)-1-(benzofuran-2-ylsulfonyl)-N-[[2-pyrrolidin-1-yl-6-[4-(trifluoromethyl)phenyl]pyrimidin-4-yl]methyl]pyrrolidine-2-carboxamide], the IC50 was 14 nM.
As to `O=C(NCc1cc(-c2ccc(C(F)(F)F)cc2)nc(N2CCOCC2)n1)[C@@H]1CCCN1S(=O)(=O)c1cc2ccccc2o1` [Example 330, (2S)-1-(benzofuran-2-ylsulfonyl)-N-[[2-morpholino-6-[4-(trifluoromethyl)phenyl]pyrimidin-4-yl]methyl]pyrrolidine-2-carboxamide], the IC50 came out at 15 nM.
Take `O=C(NCc1ccnc(-c2ccc(C(F)F)cc2)c1)[C@@H]1CCCN1S(=O)(=O)c1cc2ccccc2o1` [Example 332, (2S)-1-(benzofuran-2-ylsulfonyl)-N-[[2-[4-(difluoromethyl)phenyl]-4-pyridyl]methyl]pyrrolidine-2-carboxamide]: the IC50 was 16 nM.
On to `O=C(NCc1cc(-c2ccc(C(F)F)cc2)ccn1)[C@@H]1CCCN1S(=O)(=O)c1cc2ccccc2o1` [Example 333, (2S)-1-(benzofuran-2-ylsulfonyl)-N-[[4-[4-(difluoromethyl)phenyl]-2-pyridyl]methyl]pyrrolidine-2-carboxamide], for which the IC50 worked out at 21 nM.
For `CC(C)(C)OC(=O)c1cc(CNC(=O)[C@@H]2CCCN2S(=O)(=O)c2cc3ccccc3o2)cc(-c2ccc(C(F)(F)F)cc2)c1` [Example 338, tert-butyl 3-[[[(2S)-1-(benzofuran-2-ylsulfonyl)pyrrolidine-2-carbonyl]amino]methyl]-5-[4-(trifluoromethyl)phenyl]-benzoate], the IC50 was found to be 12 nM.
For `CN(CC(=O)NCc1cc(-c2ccc(C(F)(F)F)cn2)ccn1)S(=O)(=O)c1cc2cc(F)ccc2o1` [Example 339, 2-[(5-fluorobenzofuran-2-yl)sulfonyl-methyl-amino]-N-[[4-[5-(trifluoromethyl)-2-pyridyl]-2-pyridyl]methyl]acetamide], the IC50 turned out to be 11 nM.
On to `CN(C(C)(C)C(=O)NCc1cc(-c2ccc(C(F)(F)F)cn2)ccn1)S(=O)(=O)c1cc2cc(F)ccc2o1` [Example 340, 2-[(5-fluorobenzofuran-2-yl)sulfonyl-methyl-amino]-2-methyl-N-[[4-[5-(trifluoromethyl)-2-pyridyl]-2-pyridyl]methyl]propanamide], for which the IC50 worked out at 380 nM.
In the case of `C[C@@]1(C(=O)NCc2cc(-c3ccc(C(F)(F)F)cn3)ccn2)CCCN1S(=O)(=O)c1cc2cc(F)ccc2o1` [Example 341, (2S)-1-(5-fluorobenzofuran-2-yl)sulfonyl-2-methyl-N-[[4-[5-(trifluoromethyl)-2-pyridyl]-2-pyridyl]methyl]pyrrolidine-2-carboxamide], the IC50 was determined as 14 nM.
With `C[C@H](C(=O)NCc1cc(-c2ccc(C(F)(F)F)cn2)ccn1)N(C)S(=O)(=O)c1cc2cc(F)ccc2o1` [Example 342, (2R)-2-[(5-fluorobenzofuran-2-yl)sulfonyl-methyl-amino]-N-[[4-[5-(trifluoromethyl)-2-pyridyl]-2-pyridyl]methyl]propanamide], the IC50 was determined as 180 nM.
For the compound `O=C(CNS(=O)(=O)c1cc2cc(F)ccc2o1)NCc1cc(-c2ccc(C(F)(F)F)cn2)ccn1` [Example 343, 2-[(5-fluorobenzofuran-2-yl)sulfonylamino]-N-[[4-[5-(trifluoromethyl)-2-pyridyl]-2-pyridyl]methyl]acetamide], the IC50 was determined as 280 nM.
For `CN(CC(=O)NCc1cc(-c2ccc(C(F)(F)F)cc2)ncn1)S(=O)(=O)c1cc2cc(F)ccc2o1` [Example 344, 2-[(5-fluorobenzofuran-2-yl)sulfonyl-methyl-amino]-N-[[6-[4-(trifluoromethyl)-phenyl]pyrimidin-4-yl]methyl]acetamide], the IC50 was determined as 3.3 nM.
Regarding `O=C(CNS(=O)(=O)c1cc2cc(F)ccc2o1)NCc1cc(-c2ccc(C(F)(F)F)cc2)ncn1` [Example 345, 2-[(5-fluorobenzofuran-2-yl)sulfonylamino]-N-[[6-[4-(trifluoromethyl)phenyl]-pyrimidin-4-yl]methyl]acetamide], the IC50 was determined as 270 nM.
With `O=C(NCc1cc(-c2ccc(C(F)(F)F)cn2)ccn1)[C@@H]1CCCN1S(=O)(=O)c1cc2ccncc2o1` [Example 346, (2S)-1-furo[2,3-c]pyridin-2-ylsulfonyl-N-[[4-[5-(trifluoromethyl)-2-pyridyl]-2-pyridyl]methyl]pyrrolidine-2-carboxamide], the IC50 amounted to 700 nM.
`CC(C)N(CC(=O)NCc1cc(-c2ccc(C(F)(F)F)cn2)ccn1)S(=O)(=O)c1cc2cc(F)ccc2o1` [Example 348, 2-[(5-fluorobenzofuran-2-yl)sulfonyl-isopropyl-amino]-N-[[4-[5-(trifluoromethyl)-2-pyridyl]-2-pyridyl]methyl]acetamide]: the IC50 is 16 nM.
`O=C(CN(CC1CC1)S(=O)(=O)c1cc2cc(F)ccc2o1)NCc1cc(-c2ccc(C(F)(F)F)cn2)ccn1` [Example 349, 2-[cyclopropylmethyl-(5-fluorobenzofuran-2-yl)sulfonyl-amino]-N-[[4-[5-(trifluoromethyl)-2-pyridyl]-2-pyridyl]methyl]acetamide]: the IC50 amounted to 43 nM.
As for `O=C(CN(Cc1ccccn1)S(=O)(=O)c1cc2cc(F)ccc2o1)NCc1cc(-c2ccc(C(F)(F)F)cc2)ncn1` [Example 353, 2-[(5-fluorobenzofuran-2-yl)sulfonyl-(2-pyridylmethyl)-amino]-N-[[6-[4-(trifluoromethyl)-phenyl]pyrimidin-4-yl]methyl]acetamide], the figure is 300 nM.
As for `COCCN(CC(=O)NCc1cc(-c2ccc(C(F)(F)F)cc2)ncn1)S(=O)(=O)c1cc2cc(F)ccc2o1` [Example 357, 2-[(5-fluorobenzofuran-2-yl)sulfonyl-(2-methoxyethyl)-amino]-N-[[6-[4-(trifluoromethyl)-phenyl]pyrimidin-4-yl]methyl]acetamide], the figure is 44 nM.
As for `CC(C)N(CC(=O)NCc1cc(-c2ccc(C(F)(F)F)nc2)ncn1)S(=O)(=O)c1cc2cc(F)ccc2o1` [Example 359, 2-[(5-fluorobenzofuran-2-yl)sulfonyl-isopropyl-amino]-N-[[6-[6-(trifluoromethyl)-3-pyridyl]pyrimidin-4-yl]methyl]acetamide], the IC50 is 7.9 nM.
Consider `CC(C)N(CC(=O)NCc1cc(-c2cnc(C(F)(F)F)nc2)ncn1)S(=O)(=O)c1cc2cc(F)ccc2o1` [Example 360, 2-[(5-fluorobenzofuran-2-yl)sulfonyl-isopropyl-amino]-N-[[6-[2-(trifluoromethyl)pyrimidin-5-yl]pyrimidin-4-yl]methyl]acetamide], for which the IC50 was 10 nM.
On to `CN(CC(=O)NCc1cc(-c2ccc(OC(F)(F)F)cc2)ncn1)S(=O)(=O)c1cc2cc(F)ccc2o1` [Example 362, 2-[(5-fluorobenzofuran-2-yl)sulfonyl-methyl-amino]-N-[[6-[4-(trifluoromethoxy)-phenyl]pyrimidin-4-yl]methyl]acetamide], for which the IC50 stood at 7 nM.
In the case of `O=C(CNS(=O)(=O)c1cc2cc(F)ccc2o1)NCc1cc(-c2ccc(OC(F)(F)F)cc2)ncn1` [Example 363, 2-[(5-fluorobenzofuran-2-yl)sulfonylamino]-N-[[6-[4-(trifluoromethoxy)phenyl]-pyrimidin-4-yl]methyl]acetamide], the IC50 worked out at 920 nM.

By IC50 is commonly meant the concentration needed to halve the response being measured.

The record behind these values is patent US10626112B2, “Heterocyclic sulfonamide derivative and medicine comprising same” (EA PHARMA CO., LTD., priority 2014, dated 2020).
